Source: patent publication US20210238162A1, “CHEMICAL COMPOUNDS” (GlaxoSmithKline Intellectual Property Development Limited, priority 2015, published 2021)
Counter-ions that a name gives are not always drawn. Like-named read-outs stand apart in the source and are kept apart here.

Molecular target: T1, haematopoietic prostaglandin D synthase (H-PGDS) (Homo sapiens, UniProt O60760)
T1 construct: Full length human H-PGDS cDNA (Invitrogen Ultimate ORF IOH13026) was amplified by PCR; made in house; host or cells: E. coli BL21 (DE3*), vector pET22b+
Assay: H-PGDS RapidFire High Throughput Mass Spectrometry Assay
Assay type: biochemical
Procedure: The H-PGDS RapidFire™ mass spectrometric assay monitors conversion of prostaglandin H2 (PGH2) to prostaglandin D2 (PGD2) by haematopoietic prostaglandin D synthase (H-PGDS). In the assay format described here, the substrate (PGH2) is formed in situ by the action of cyclooxygenase-2 on arachidonic acid. This first step is set up to be fast, and generates a burst of PGH2 at ˜10 μM. The PGH2 is then further converted to PGD2 by the H-PGDS enzyme. […] Plates are then read on the RapidFire™ high throughput solid phase extraction system (Agilent) which incorporates a solid phase extraction step coupled to a triple quadrupole mass spectrometer (AB SCIEX). Relative levels of PGD2 and PGF2α, which acts as a surrogate for substrate, are measured and a percent conversion calculated.
Full length human H-PGDS cDNA (Invitrogen Ultimate ORF IOH13026) was amplified by PCR with the addition of a 5′ 6-His tag and TEV protease cleavage site. The PCR product was digested with Ndel and Xhol and ligated into pET22b+ (Merck Novagen®). Expression was carried out in E. coli strain BL21 (DE3*) using auto-induction Overnight Express™ Instant TB medium (Merck Novagen®) supplemented with 1% glycerol. The culture was first grown at 37° C. and the temperature was reduced to 25° C. when OD600 reached 2.0. Cells were harvested by centrifugation after a further 18 hr. 10 g of E. coli cell pellet was suspended to a total volume of 80 mL in lysis buffer (20 mM Tris-Cl pH 7.5, 300 mM NaCl, 20 mM imidazole, 5 mM β-mercaptoethanol, 10% glycerol). 1 mg/mL protease inhibitors (Protease Inhibitor Cocktail Set Ill, Merck Calbiochem®) and 1 mg/mL lysozyme were added to the cell suspension. The suspension was then sonicated for 5 min (UltraSonic Processor VCX 750, Cole-Parmer Instrument Co.) with a micro probe (50% amplitude, 10 sec on/off) and then centrifuged at 100,000 g for 90 min (at 4° C.). The supernatant was loaded onto a Ni-NTA HiTrap column (5 mL, GE Heathcare, pre-equilibrated in lysis buffer). The column was washed with 10 column volumes of lysis buffer and eluted with lysis buffer containing 500 mM imidazole. The pooled protein peak fractions were concentrated using a 10 kDa centrifugal filter at 3500 g and 4° C. (Amicon Ultra-15 centrifugal filter unit with Ultracel-10 membrane from Millipore). Further purification of the concentrated protein was carried out using gel filtration chromatography on a HiLoad 26/600 Superdex 75 preparative grade column (GE Healthcare Life Sciences) using 50 mM Tris pH 7.5, 50 mM NaCl, 1 mM dithiothreitol, 1 mM MgCl2. Fractions containing the protein were pooled, concentrated as described above, and stored at −80° C.
The full length human COX-2 gene (accession number L15326) was amplified by PCR to generate an EcoRI-HindIII fragment containing an in-frame FLAG tag. This was subcloned into pFastBac 1 (Invitrogen). The COX2 FLAG plasmid was recombined into the baculovirus genome according to the BAC-to-BAC protocol described by Invitrogen. Transfection into Spodoptera frugiperda (Sf9) insect cells was performed using Cellfectin (Invitrogen), according to the manufacturer's protocol. […] Recombinant virus was added at a Multiplicity of Infection (MOI) of 5 and the culture was allowed to continue for 3 days. Cells were harvested using a continuous feed centrifuge run at 2500 g at a rate of approximately 2 L/min with cooling. The resultant cell slurry was re-centrifuged in pots (2500 g, 20 min, 4° C.) and the cell paste was stored at −80° C. […] The suspension was sonicated in 500 mL batches for 8×5 seconds at 10 u amplitude with the medium tip of an MSE probe sonicator and subsequently incubated at 4° C. for 90 min with gentle stirring. The lysate was centrifuged at 12000 rpm for 45 min at 4° C. in a Sorvall SLA1500 rotor. The supernatant (1400 mL) was added to 420 mL of 20 mM Tris-Cl pH 7.4, 150 mM NaCl, 0.1 mM EDTA to reduce the concentration of n-octyl-β-D-glucopyranoside to 1% w/v.

[1] = H-PGDS RapidFire MS assay, mean pIC50, read-out: Potency Range (mean pIC50) (converted)
[2] = in at least one experimental run, read-out: H-PGDS pIC50 value (converted)

T1 sequence (O60760 whole entry): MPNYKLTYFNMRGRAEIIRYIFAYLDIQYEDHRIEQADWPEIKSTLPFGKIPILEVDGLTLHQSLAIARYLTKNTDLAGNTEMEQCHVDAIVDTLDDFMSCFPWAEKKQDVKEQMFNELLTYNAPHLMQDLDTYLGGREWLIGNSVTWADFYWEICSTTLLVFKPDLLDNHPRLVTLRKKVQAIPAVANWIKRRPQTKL

SMILES | IC50 [1] [nM] | IC50 [2] [nM]
CC1C[C@H](NC(=O)c2cnc3cc(OC(F)F)c(Cl)cc3c2)C(=O)N1 (mixture of isomers) [Example 133, 6-Chloro-7-(difluoromethoxy)-N-((3S)-5-methyl-2-oxopyrrolidin-3-yl)quinoline-3-carboxamide] | 10 to 79.4 | 
CC1CCN1c1cc2ncc(C(=O)N[C@H]3CCNC3=O)cc2cc1F (mixture of isomers) [Example 171, 6-Fluoro-7-(2-methylazetidin-1-yl)-N—((S)-2-oxopyrrolidin-3-yl)quinoline-3-carboxamide] | 10 to 79.4 | 
O=C(N[C@@H]1CC[C@@H](C(O)C(F)(F)F)OC1)c1cnc2cc(OC(F)F)ccc2c1 (mixture of isomers) [Example 17, Racemic 7-(Difluoromethoxy)-N-((3R,6S)-6-(2,2,2-trifluoro-1-hydroxyethyl)tetrahydro-2H-pyran-3-yl)quinoline-3-carboxamide] | 10 to 79.4 | 
CC(C)(O)[C@@H]1CC[C@@H](NC(=O)c2cnc3cc(OC(F)F)ccc3c2)CO1 (racemic) [Example 22, Racemic 7-(Difluoromethoxy)-N-((3s,6r)-6-(2-hydroxypropan-2-yl)tetrahydro-2H-pyran-3-yl)quinoline-3-carboxamide] | 10 to 79.4 | 
O=C(NC1CC2(CC(NCC(F)(F)F)C2)C1)c1cnc2cc(OC(F)F)c(F)cc2c1 (racemic) [Example 61, 7-(Difluoromethoxy)-6-fluoro-N-(6-((2,22-trifluoroethyl)amino)spiro[3.3]heptan-2-yl)quinoline-3-carboxamide] | 10 to 79.4 | 
CC(NC[C@H]1CC[C@H](NC(=O)c2cnc3cc(OC(F)F)c(F)cc3c2)CC1)C(F)F (mixture of isomers) [Example 75, 7-(Difluoromethoxy)-N-(trans-4-(((1,1-difluoropropan-2-yl)amino)methyl)cyclohexyl)-6-fluoroquinoline-3-carboxamide] | 10 to 79.4 | 
CC(C)(O)[C@@H]1CC[C@@H](NC(=O)c2cnc3cc(OC(F)F)c(Cl)cc3c2)CO1 (racemic) [Example 124, Racemic 6-chloro-7-(difluoromethoxy)-N-((3r,6s)-6-(2-hydroxypropan-2-yl)tetrahydro-2H-pyran-3-yl)quinoline-3-carboxamide] | < 10 | 
CC(N[C@H]1CC[C@H](NC(=O)c2cnc3cc(OC(F)F)c(Cl)cc3c2)CC1)C(F)F (mixture of isomers) [Example 125, 6-Chloro-7-(difluoromethoxy)-N-(trans-4-((1,1-difluoropropan-2-yl)amino)cyclohexyl)quinoline-3-carboxamide] | < 10 | 
CN(C)C(=O)[C@@H]1CC[C@@H](NC(=O)c2cnc3cc(OC(F)F)c(Cl)cc3c2)CO1 (racemic) [Example 126, Racemic 6-Chloro-7-(difluoromethoxy)-N-((3r,6s)-6-(dimethylcarbamoyl)tetrahydro-2H-pyran-3-yl)quinoline-3-carboxamide] | 10 to 79.4 | 
C[C@]1(O)CC[C@H](NC(=O)c2cnc3cc(OC(F)F)c(Cl)cc3c2)C1 (racemic) [Example 146, Racemic 6-Chloro-7-(difluoromethoxy)-N-((1S,3S)-3-hydroxy-3-methylcyclopentyl)quinoline-3-carboxamide] | 10 to 79.4 | 
CC(N[C@H]1CC[C@H](NC(=O)c2cnc3cc(OC(F)F)c(Br)cc3c2)CC1)C(F)F (mixture of isomers) [Example 156, 6-Bromo-7-(difluoromethoxy)-N-(trans-4-((1,1-difluoropropan-2-yl)amino)cyclohexyl)quinoline-3-carboxamide] | < 10 | 
CC1CCN1c1cc2ncc(C(=O)N[C@H]3CC[C@H](C(C)(C)O)CC3)cc2cc1F (mixture of isomers) [Example 170, 6-Fluoro-N-(trans-4-(2-hydroxypropan-2-yl)cyclohexyl)-7-(2-methylazetidin-1-yl)quinoline-3-carboxamide] | 10 to 79.4 | 
O=C(N[C@H]1CC[C@H]([C@@H](O)C(F)(F)F)CC1)c1cnc2cc(OC(F)F)ccc2c1 (single isomer, unassigned) [Example 20] | < 10 | 7.94
O=C(N[C@H]1CC[C@H]([C@H](O)C(F)(F)F)CC1)c1cnc2cc(OC(F)F)ccc2c1 (single isomer, unassigned) [Example 21] | < 10 | 
O=C(NC1CCNC1=O)c1cnc2cc(OC(F)F)c(Cl)cc2c1 (stereo in doubt) [Example 117, (S)-6-Chloro-7-(difluoromethoxy)-N-(2-oxopyrrolidin-3-yl)quinoline-3-carboxamide, trifluoroacetate] | < 10 | 
CN(C)C(=O)[C@H]1CC[C@H](NC(=O)c2cnc3cc(OC(F)F)ccc3c2)CC1 [Example 5, 7-(Difluoromethoxy)-N-((trans)-4-(dimethylcarbamoyl)cyclohexyl)quinoline-3-carboxamide] | 10 to 79.4 | 
CS(=O)(=O)N1CCC(NC(=O)c2cnc3cc(OC(F)F)ccc3c2)CC1 [Example 7, 7-(Difluoromethoxy)-N-(1-(methylsulfonyl)piperidin-4-yl)quinoline-3-carboxamide] | 10 to 79.4 | 
Cc1cc(NC(=O)c2cnc3cc(OC(F)F)ccc3c2)[nH]n1 [Example 8, 7-(Difluoromethoxy)-N-(3-methyl-1H-pyrazol-5-yl)quinoline-3-carboxamide] | 10 to 79.4 | 
O=C1CC(NC(=O)c2cnc3cc(OC(F)F)ccc3c2)c2ccccc2N1 (stereo not shown) [Example 9, 7-(Difluoromethoxy)-N-(2-oxo-1,2,3,4-tetrahydroquinolin-4-yl)quinoline-3-carboxamide] | 10 to 79.4 | 
O=C(Nc1nccs1)c1cnc2cc(OC(F)F)ccc2c1 [Example 10, 7-(Difluoromethoxy)-N-(thiazol-2-yl)quinoline-3-carboxamide] | 10 to 79.4 | 
CC(C)(O)[C@H]1C[C@H](NC(=O)c2cnc3cc(OC(F)F)ccc3c2)C1 [Example 11, 7-(Difluoromethoxy)-N-(trans-3-(2-hydroxypropan-2-yl)cyclobutyl)quinoline-3-carboxamide] | 10 to 79.4 | 
CC(C)(O)CO[C@H]1CC[C@H](NC(=O)c2cnc3cc(OC(F)F)ccc3c2)CC1 [Example 12, 7-(Difluoromethoxy)-N-(trans-4-(2-hydroxy-2-methylpropoxy)cyclohexyl)quinoline-3-carboxamide] | 10 to 79.4 | 
CC(O)[C@H]1CC[C@H](NC(=O)c2cnc3cc(OC(F)F)ccc3c2)CC1 (stereo partly drawn) [Example 13, 7-(Difluoromethoxy)-N-(trans-4-(-1-hydroxyethyl)cyclohexyl)quinoline-3-carboxamide] | 10 to 79.4 | 
O=C(N[C@H]1CC[C@H](C(O)C2CC2)CC1)c1cnc2cc(OC(F)F)ccc2c1 (stereo partly drawn) [Example 14, N-(trans-4-(-Cyclopropyl(hydroxy)methyl)cyclohexyl)-7-(difluoromethoxy)quinoline-3-carboxamide] | < 10 | 
O=C(N[C@H]1CC[C@H](C(O)C(F)(F)F)CC1)c1cnc2cc(OC(F)F)ccc2c1 (stereo partly drawn) [Example 15, 7-(Difluoromethoxy)-N-(trans-4-(2,2,2-trifluoro-1-hydroxyethyl)cyclohexyl)quinoline-3-carboxamide] | < 10 | 7.94
CC(O)CO[C@H]1CC[C@H](NC(=O)c2cnc3cc(OC(F)F)ccc3c2)CC1 (stereo partly drawn) [Example 16, 7-(Difluoromethoxy)-N-(trans-4-(2-hvdroxypropoxy)cyclohexyl)quinoline-3-carboxamide] | 10 to 79.4 | 
